Results reported in patent publication US10508077B2 (FORMA Therapeutics, Inc., priority 2015, dated 2019).

Molecular target: T1, Full length human recombinant HDAC8 protein (Homo sapiens, UniProt Q9BY41)
T1 construct: Full length human recombinant HDAC8 protein was expressed in baculoviral system; made in house
T1 sequence (Q9BY41 1-377): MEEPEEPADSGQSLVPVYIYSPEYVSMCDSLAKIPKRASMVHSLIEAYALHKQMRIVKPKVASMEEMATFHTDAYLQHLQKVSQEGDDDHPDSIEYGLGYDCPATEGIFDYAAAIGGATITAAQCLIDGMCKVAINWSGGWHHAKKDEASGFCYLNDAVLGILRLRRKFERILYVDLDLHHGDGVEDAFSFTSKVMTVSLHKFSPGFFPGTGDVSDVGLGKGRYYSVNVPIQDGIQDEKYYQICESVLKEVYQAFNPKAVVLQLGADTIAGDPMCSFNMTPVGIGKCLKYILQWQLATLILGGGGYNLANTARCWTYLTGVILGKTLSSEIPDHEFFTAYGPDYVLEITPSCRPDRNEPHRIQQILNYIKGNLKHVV
Experiment: In vitro histone deacetylase assay: enzymatic HDAC8 assay, electrophoretic mobility shift
Type: biochemical
Conditions: substrate RHKK(Ac)-NH2, 1 nM enzyme, compounds listed under IC50 range headings
How it was run: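 Readout was microfluidic mobility-shift separation of deacetylated product from fluorescent RHKK(Ac)-NH2 substrate (2 µM), after reaction with 1 nM recombinant full-length human HDAC8 at 25 °C, pH 7.5, stopped with SDS. Twelve 3-fold-spaced concentrations tested; product/sum ratios normalized to controls and fitted with a 4-parameter model for IC50.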

O=C(/C=C/c1ccccc1N1CC2CC1CN2C(=O)Cc1ccc(Cl)cc1)NO [Example I-316, (E)-3-(2-((1S,4S)-5-(2-(4-chlorophenyl)acetyl)-2,5-diazabicyclo[2.2.1]heptan-2-yl)pheynyl)-N-hydroxyacrylamide]
IC50: < 1000 nM

O=C(/C=C/c1ccccc1N1CCC(NC(=O)c2ccccc2)C1)NO (centres unmarked) [Example I-318, (E)-N-(1-(2-(3-(hydroxyamino)-3-oxoprop-1-en-1-yl)phenyl)pyrrolidin-3-yl)benzamide]
IC50: < 1000 nM

O=C(/C=C/c1ccccc1N1CCN(C(=O)C2(C(F)(F)F)CC2)CC1)NO [Example I-322, (E)-N-hydroxy-3-(2-(4-(1-(trifluoromethyl)cyclopro-pane-1-carbonyl)piperazin-1-yl)phenyl)acrylamide]
IC50: < 1000 nM

O=C(/C=C/c1ccccc1N1C[C@@H]2C[C@H]1CN2C(=O)C1(c2ccc(Cl)cc2)CC1)NO [Example I-329, (E)-3-(2-((1S,4S)-5-(1-(4-chlorophenyl)cyclopropane-1-carbonyl)-2,5-diazabicyclo[2.2.1]heptan-2-yl)phenyl)-N-hydroxyacrylamide]
IC50: < 1000 nM

O=C(/C=C/c1ccccc1NC1CCN(Cc2ccc(F)cc2)C1)NO (centres unmarked) [Example I-330, (E)-3-(2-((1-(4-fluorobenzyl)pyrrolidin-3-yl)amino)phenyl)-N-hydroxyacrylamide]
IC50: < 1000 nM

O=C(/C=C/c1ccccc1N1CCC(NC(=O)Cc2ccc(F)cc2)CC1)NO [Example I-331, (E)-3-(2-(4-(2-(4-fluorophenyl)acetamido)piperidin-1-yl)phenyl)-N-hydroxyacrylamide]
IC50: < 1000 nM

O=C(/C=C/c1ccccc1NC(=O)c1ccccc1)NO [Example I-506, (E)-N-(2-(3-(hydroxyamino)-3-oxoprop-1-enyl)phenyl)benzamide 2,2,2-trifluoroacetate]
IC50: < 1000 nM

O=C(/C=C/c1ccccc1N1CCN(C(=O)Nc2ccc(OC(F)(F)F)cc2)CC1=O)NO [Example I-528, (E)-4-(2-(3-(hydroxyamino)-3-oxoprop-1-en-1-yl)phenyl)-3-oxo-N-(4-(trifluoromethoxy)phenyl)piperazine-1-carboxamide]
IC50: < 1000 nM

O=C(/C=C/c1ccccc1N1CCN(C(=O)c2ccc(C(F)(F)F)cc2)CC1=O)NO [Example I-532, (E)-N-hydroxy-3-(2-(2-oxo-4-(4-(trifluoromethyl)benzoyl)piperazin-1-yl)phenyl)acrylamide]
IC50: < 1000 nM

O=C(/C=C/c1ccccc1C(=O)Nc1ccc(-c2ccccc2)c(C(F)(F)F)c1)NO [II-1]
IC50: 1000 to 10000 nM

O=C(/C=C/c1ccccc1C(=O)Nc1ccccc1)NO [II-2, (E)-2-(3-(hydroxyamino)-3-oxoprop-1-en-1-yl)-N-phenylbenzamide]
IC50: 1000 to 10000 nM

CCc1ccc(NC(=O)c2ccccc2/C=C/C(=O)NO)cc1 [II-3, (E)-N-(4-ethylphenyl)-2-(3-(hydroxyamino)-3-oxoprop-1-en-1-yl)benzamide]
IC50: 1000 to 10000 nM

O=C(/C=C/c1ccccc1C(=O)NCC1CCCCC1)NO [II-4, (E)-N-(cyclohexylmethyl)-2-(3-(hydroxyamino)-3-oxoprop-1-en-1-yl)benzamide]
IC50: 1000 to 10000 nM

COc1ccc(CNC(=O)c2ccccc2/C=C/C(=O)NO)cc1 [II-5, (E)-2-(3-(hydroxyamino)-3-oxoprop-1-en-1-yl)-N-(4-methoxybenzyl)benzamide]
IC50: 1000 to 10000 nM

O=C(/C=C/c1ccccc1C(=O)NCCc1ccc(F)cc1)NO [II-6, (E)-N-(4-fluorophenethyl)-2-(3-(hydroxyamino)-3-oxoprop-1-en-1-yl)benzamide]
IC50: 1000 to 10000 nM

O=C(/C=C/c1ccccc1C(=O)NCc1ccc(-c2ccccc2)cc1)NO [II-7, (E)-N-([1,1′-biphenyl]-4-ylmethyl)-2-(3-(hydroxyamino)-3-oxoprop-1-en-1-yl)benzamide]
IC50: 1000 to 10000 nM

CC(=O)NC1CCN(C(=O)c2ccccc2/C=C/C(=O)NO)CC1 [II-8, (E)-3-(2-(4-acetamidopiperidine-1-carbonyl)phenyl)-N-hydroxyacrylamide]
IC50: 1000 to 10000 nM

O=C(/C=C/c1ccccc1C(=O)N1CCC2(CC1)OCc1ccccc12)NO [II-9, (E)-3-(2-(3H-spiro[isobenzofuran-1,4′-piperidine]-1′-carbonyl)phenyl)-N-hydroxyacrylamide]
IC50: 1000 to 10000 nM

O=C(/C=C/c1ccccc1C(=O)N1CC(N2CCS(=O)(=O)CC2)C1)NO [II-10, (E)-3-(2-(3-(1,1-dioxidothiomorpholino)azetidine-1-carbonyl)phenyl)-N-hydroxyacrylamide]
IC50: 1000 to 10000 nM

COCC1(N(C)C(=O)c2ccccc2/C=C/C(=O)NO)CC1 [II-11, (E)-2-(3-(hydroxyamino)-3-oxoprop-1-en-1-yl)-N-(1-(methoxymethyl)cyclopropyl)-N-methylbenzamide]
IC50: 1000 to 10000 nM

O=C(/C=C/c1ccccc1C(=O)N1C2CCC1CC2)NO [II-12, (E)-3-(2-(7-azabicyclo[2.2.1]heptane-7-carbonyl)phenyl)-N-hydroxyacrylamide]
IC50: 1000 to 10000 nM

O=C(/C=C/c1ccccc1C(=O)NC1CCCCC1)NO [II-13, (E)-N-cyclohexyl-2-(3-(hydroxyamino)-3-oxoprop-1-en-1-yl)benzamide]
IC50: < 1000 nM

CCCCc1ccc(NC(=O)c2ccccc2/C=C/C(=O)NO)cc1 [II-14, (E)-N-(4-butylphenyl)-2-(3-(hydroxyamino)-3-oxoprop-1-en-1-yl)benzamide]
IC50: < 1000 nM

O=C(/C=C/c1ccccc1C(=O)N1CCCCC1)NO [II-16, (E)-N-hydroxy-3-(2-(piperidine-1-carbonyl)phenyl)acrylamide]
IC50: < 1000 nM

O=C(/C=C/c1ccccc1C(=O)N1CCC(F)(F)CC1)NO [II-17, (E)-3-(2-(4,4-difluoropiperidine-1-carbonyl)phenyl)-N-hydroxyacrylamide]
IC50: < 1000 nM

CN(Cc1cccc(C(F)(F)F)c1)C(=O)c1ccccc1/C=C/C(=O)NO [II-18]
IC50: < 1000 nM

O=C(/C=C/c1ccccc1C(=O)N1CCN(c2ccccc2)CC1)NO [II-19, (E)-N-hydroxy-3-(2-(4-phenylpiperazine-1-carbonyl)phenyl)acrylamide]
IC50: < 1000 nM

O=C(/C=C/c1ccccc1C(=O)N1CCN(c2ccncc2)CC1)NO [II-20]
IC50: < 1000 nM

O=C(/C=C/c1ccccc1C(=O)N1CCN(CCc2ccccc2)CC1)NO [II-21, (E)-N-hydroxy-3-(2-(4-phenethylpiperazine-1-carbonyl)phenyl)acrylamide]
IC50: < 1000 nM

O=C(/C=C/c1ccccc1C(=O)N1CCC(C(F)(F)F)CC1)NO [II-23, (E)-N-hydroxy-3-(2-(4-(trifluoromethyl)piperidine-1-carbonyl)phenyl)acrylamide]
IC50: < 1000 nM

O=C(/C=C/c1ccccc1C(=O)N1CCS(=O)(=O)CC1)NO [II-24, (E)-3-(2-(1,1-dioxidothiomorpholine-4-carbonyl)phenyl)-N-hydroxyacrylamide]
IC50: < 1000 nM

Cn1cc2c(n1)CCN(C(=O)c1ccccc1/C=C/C(=O)NO)C2 [II-25, (E)-N-hydroxy-3-(2-(2-methyl-4,5,6,7-tetrahydro-2H-pyrazolo[4,3-c]pyridine-5-carbonyl)phenyl)acrylamide]
IC50: < 1000 nM

Cc1nnc(C)n1C1CCN(C(=O)c2ccccc2/C=C/C(=O)NO)CC1 [II-26, (E)-3-(2-(4-(3,5-dimethyl-4H-1,2,4-triazol-4-yl)piperidine-1-carbonyl)phenyl)-N-hydroxyacrylamide]
IC50: < 1000 nM

O=C(/C=C/c1ccccc1S(=O)(=O)C1CCN(Cc2ccccc2)CC1)NO [II-30, (E)-3-(2-((1-benzylpiperidin-4-yl)sulfonyl)phenyl)-N-hydroxyacrylamide]
IC50: < 1000 nM

O=C(/C=C/c1ccccc1C(=O)Nc1cccc(C(F)(F)F)c1)NO [II-36, (E)-2-(3-(hydroxyamino)-3-oxoprop-1-en-1-yl)-N-(3-(trifluoromethyl)phenyl)benzamide]
IC50: < 1000 nM
